In patent publication US20170003292A1, “PAXIP1 AS A BIOMARKER FOR WEE1 INHIBITOR THERAPY” (H. LEE MOFFITT CANCER CENTER AND RESEARCH INSTITUT INC., priority 2014, published 2017):

Tests used:
Assay type in all cases: cell-based
[1] = system: WEE1 and PAXIP1 positive patient-derived xenografts (PDX); experiment: 3-D clonogenic assay of patient-derived xenograft (PDX) lung tumors, Chou-Talalay combination index; details: combination with cisplatin
Source text: Two tumors that were selected from a TMA of 68 lung tumors for 3-D clonogenic assays to test synergy of the combination of AZD1775 and cisplatin in these tumors. FIGS. 7A and 7C show percentage of tumor inhibition with different concentrations of AZD1775 and cisplatin. FIGS. 7B and 7D show combination index (CI) values obtained by applying the chou-[…] analysis to the percent inhibition values.

H322 cells [2] = experiment: caspase-3 mediated apoptosis in H322 cells overexpressing PAXIP1; details: PAXIP1 overexpression, treated over 72 hours, compared to cells with low levels of PAXIP1
H322 cells [3] = experiment: mitotic index at the G2/M checkpoint in H322 cells overexpressing full length PAXIP1; details: H322 cells with overexpression of full length PAXIP1, after AZD1775 treatment
lung cancer cell lines = experiment: small-molecule inhibitor screen, apoptosis in lung cancer cell lines; details: AZD1775 in combination with cisplatin; multiple lung cancer cell lines
Source text: Since posttranslational phosphorylations are used by the DDR to coordinate cellular response to damage, 18 kinases found in this tBRCT PPIN were examined using a small-molecule inhibitor screen.

[4] = system: lung cancer cell lines H322, H1648, H1395, H157; experiment: cell viability by CellTiterGlo with synergy scores (Bliss model of independence); details: cells that express both PAXIP1 and WEE1; 72 h treatment; combination with cisplatin
Protocol: Lung adenocarcinoma cell lines 1-H322 (FIGS. 5A, 5B), H1648 (FIGS. 5E, 5F) and H1395 (FIGS. 5G, 5H) and a squamous lung cancer cell line H157 (FIG. 5C, 5D) were treated with AZD1775 and cisplatin either alone or in combination for 1 h and p-CDK1, PAXIP1 and WEE1 levels were measured (FIGS. 5A, 5C, 5E, […]). Cell lines were treated with AZD1775 and cisplatin for 72 h, cell viability was measured by CellTiterGlo and synergy scores were calculated (FIGS. 5B, 5D, 5F, 5H). Depicted in FIGS. 5B, 5D, 5F, and 5H are the three-dimensional dose-response surface curves with various combinations of drug concentrations (left) and the deviation from expected additive values determined by Bliss model of independence (right).

WEE1 = experiment: p-CDC2 (p-CDK1) blots as marker for WEE1 inhibition in lung cancer cell lines; details: 15 lung cancer cell lines; AZD1775 as single agent or in combination with cisplatin; in lines with detectable (or elevated) PAXIP1 and WEE1
Source text: FIG. 2 is a series of blots showing PAXIP1, WEE1, and p-CDC2 (a.k.a. p-CDK1) levels in lung cancer cell lines treated with AZD1775 and Cisplatin. D: DMSO; M: AZD1775 only; C: Cisplatin only; M+C: AZD1775 and Cisplatin combination. AZD1775 is an ATP mimetic that targets the kinase activity of WEE1 and is currently being evaluated in clinical trials for several tumor types. Phosphorylation of CDC2 (a.k.a. CDK1) by WEE1 can be used as a marker for WEE1 inhibition.

C=CCn1c(=O)c2cnc(Nc3ccc(N4CCN(C)CC4)cc3)nc2n1-c1cccc(C(C)(C)O)n1 [AZD1775, 2-allyl-1-(6-(2-hydroxypropan-2-yl)pyridin-2-yl)-6-((4-(4-methylpiperazin-1-yl)phenyl)amino)-1H-pyrazolo[3,4-d]pyrimidin-3(2H)-one]
synergy of AZD1775 and cisplatin (tumor inhibition, combination index) [1]: exhibit synergy
caspase-3 mediated apoptosis (H322 cells [2]): sustained increase in apoptosis
caspase-3 mediated apoptosis (H322 cells [2]; listed as AZD 1775): sustained increase in caspase-3 mediated apoptosis
mitotic index at the G2/M checkpoint (H322 cells [3]): increased mitotic index
apoptosis (lung cancer cell lines): significant apoptosis
synergy of AZD1775 and cisplatin (cell viability) [4]: exhibit synergy
CDC2 phosphorylation (WEE1): repression of CDC2 phosphorylation
